Where two headings read alike, the source gives them in different places. Marks after values point to notes of the source that are not given here.
Experiments:
[1] = system: AAMU-Ab; assay: Competitive antigen ELISA, cross-reactivity of AAMU-Ab; assay type: binding, rabbit; settings: competitive antigen ELISA; 0 = absence of inhibition or inhibition no higher than 40% at the highest concentration tested (5×10^−3 M)
Procedure: (§1) Competitive Antigen ELISA
(§2) Buffers and water without additives are filtered through millipore filters and kept for 1 week. BSA, antibodies, Tween™ 20 and horse radish peroxidase conjugates are added to these buffers and water just prior to use. Urine samples are usually collected 4 hours after drinking a cup of coffee (instant or brewed with approximately 100 mg of caffeine per cup) and stored at −80° C. The urine samples are diluted 10 times with sodium phosphate buffer (620 mosm, pH 7.50) and are subsequently diluted with water to give concentrations of AAMU and 1X no higher than 3×10^−6 M in the ELISA. All the pipettings are done with an eight-channel pipette, except those of the antibody and sample solutions. Starting with the last well, 100 μL of a carbonate buffer (100 mM, pH 9.6) containing 2.5 μg mL-1 antibodies are added to each well. After 90 min. at room temperature, the wells are washed three times with 100 mL of TPB: isotonic sodium phosphate buffer (310 mosm, pH 7.50) containing 0.05% Tween™ 20.
(§3) After the initial wash, unoccupied sites are blocked by incubation for 90 min. at room temperature with 100 μL TBP containing 3% BSA. The wells are washed four times with 100 […] TPB. […] The microplate is gently shaken with an orbital shaker at room temperature for 3-4 hours. The wells are washed three times with 100 μL TPB containing 1% BSA and three times with water containing 0.05% Tween™ 20. To the washed plate is added 150 μL of a substrate buffer composed of citric acid (25 mM) and sodium phosphate dibasic buffer (50 mM, pH 5.0) containing 0.06% hydrogen peroxide and 0.04% o-phenylenediamine hydrochloride.
as §2, with “were” for “are”, “They were” for “The urine samples are”, “mL^−1” for “mL-1”, “was pipetted.” for “are added to each well.”, “μL” for “mL”
(§4) After the initial wash, unoccupied sites were blocked by incubation for 90 min. at room temperature with 100 μL TBP containing 3% BSA. The wells were washed four times with 100 μL TPB. […] The microplate was gently shaken with an orbital shaker at room temperature for 3-4 hours. The wells were washed three times with 100 μL with TPB containing 1% BSA and three times with water containing 0.05% Tween™ 20. To the washed plate was added 150 μL of a substrate buffer composed of citric acid (25 mM) and sodium phosphate dibasic buffer (50 mM, pH 5.0) containing 0.06% hydrogen peroxide and 0.04% o-phenylenediamine hydrochloride. After 20 min. at room temperature with shaking, the reaction was stopped with 50 μL of 2.5 N HCl.
(§5) The cross reactivities of AAMU-Ab and 1X-Ab were tested using a wide variety of caffeine metabolites and structural analogs (Table 2 below).

[2] = system: 1X-Ab; assay: Competitive antigen ELISA, cross-reactivity of 1X-Ab; assay type: binding, rabbit; settings: competitive antigen ELISA; 0 = absence of inhibition or inhibition no higher than 40% at the highest concentration tested (5×10^−3 M)
Procedure: as §1, §2, §3
as §2, with “were” for “are”, “They were” for “The urine samples are”, “mL^−1” for “mL-1”, “was pipetted.” for “are added to each well.”, “μL” for “mL”
as §4, §5

[3] = system: Caffeine-Ab; assay: Competitive antigen ELISA, antibody specificity of caffeine-Ab; assay type: binding, rabbit; settings: hypothesized ideal antibody specificity; 0 = no inhibition or no higher than 40% at 5×10^−3 M
Procedure: as §1
(§6) BSA, antibodies, Tween™ 20 and horse radish peroxidase are added to buffers and water just prior to use. Urine samples are usually collected four hours after drinking a cup of coffee (instant or brewed with approximately 100 mg of caffeine per cup) and stored at −20° C. as 1-mL aliquots in 1.5-mL microtubes. For the ELISA, the urine samples are diluted with isotonic sodium phosphate buffer, pH 7.5 (310 mosM) to give concentrations of caffeine, 1.7-DMX and 1,7-DMU no higher than 3×10^−6 M in the microtiter plate wells. Wells of the ELISA plate are washed with a Nunc-Immuno wash 12 washer. Sixteen milliliters of a solution of 6.6 μg ml^−1 of isolated IgG antibodies is prepared in a 100 mM sodium carbonate buffer, pH 9.6, and 150 μL of this solution is pipetted in each well of a microtiter plate using a eight channel pipet (Brinkmann Transferpette™-8 50-200 μL) and 200 μL Flex tips from Brinkmann). After coating the wells with antibodies at 4° C. for 20 hours, the wells are washed 3 times with the isotonic sodium phosphate buffer containing 0.05% Tween™ 20 (IPBT) and properly drained by inverting the plate and absorbing the liquid on to a piece of paper towel. Thirty milliliters of a solution of a IPBT solution containing 1% BSA is prepared and 150 μL of this solution is pipetted in each well using a eight channel pipet (Brinkmann Transferpet-te™-8 50-200 μL) and 200 μL yellow tips (Sarstedt yellow tips for P200 Gilson Pipetman). After 3 hours at room temperature, the wells are washed 3 times with IPBT solution and drained. Samples of 400 μL for determination of caffeine, 1,7-DMX and 1,7-DMU are prepared in 1.5-mL microtubes using Sarstedt yellow tips and a P200 Gilson Pipetman. Then, 200 μL of each sample are pipetted in duplicate in a Falcon 96-well microtest tissue culture plate according to the pattern shown in FIG. 23, using Sarstedt yellow tips and a P200 Gilson Pipetman. Using an eight channel pipet (Brinkmann Transferpette™-8 50-200 μL) and changing the tips of the eight channel pipet (200 μL Flex tips from Brinkmann) at each row, 150 μL of samples are transferred in the corresponding wells of a 96-well ELISA microtiter plate coated with antibodies. After the addition of the samples, the microtiter plates are covered and left standing at room temperature for 2 h. While the plate is left standing the substrate buffer without the hydrogen peroxide and o-phenylenediamine hydrochloride is prepared (25 mM citric acid and 50 mM sodium phosphate dibasic buffer, pH 5.0). The microtiter plate is washed 3 times with the IPBT solution and 3 times with a 0.05% Tween 20 solution and drained. Then, 50 […] of hydrogen peroxide and 40 mg of o-phenylenediamine are added to the substrate buffer. One hundred fifty microliters (150 μL) of the substrate buffer solution is then added to each well using a eight channel pipet (Brinkmann Transferpette™-8 50-200 μL) and 200 μL Flex tips (Brinkmann). The microtiter plate is covered and shaken for 25-30 min at room temperature and the enzymatic reaction is stopped by adding 50 μL/well of a 2.5 N HCl solution using an eight channel pipet (Brinkmann Transferpette™-8 50-200 μL) and 200 μL Flex tips (Brinkmann).

[4] = system: 1,7-DMX-Ab; assay: Competitive antigen ELISA, antibody specificity of 1,7-DMX-Ab; assay type: binding, rabbit; settings: hypothesized ideal antibody specificity; 0 = no inhibition or no higher than 40% at 5×10^−3 M
Procedure: as §1, §6

[5] = system: 1,7-DMU-Ab; assay: Competitive antigen ELISA, antibody specificity of 1,7-DMU-Ab; assay type: binding, rabbit; settings: hypothesized ideal antibody specificity; 0 = no inhibition or no higher than 40% at 5×10^−3 M
Procedure: as §1, §6

[6] = system: CYP2D6; settings: cited from earlier work
[7] = Felder et al.; cited from earlier work
[8] = biological target: T1, CYP1A2 (Homo sapiens, UniProt P05177); settings: in vitro; cited from earlier work
T1 sequence (P05177 1-516): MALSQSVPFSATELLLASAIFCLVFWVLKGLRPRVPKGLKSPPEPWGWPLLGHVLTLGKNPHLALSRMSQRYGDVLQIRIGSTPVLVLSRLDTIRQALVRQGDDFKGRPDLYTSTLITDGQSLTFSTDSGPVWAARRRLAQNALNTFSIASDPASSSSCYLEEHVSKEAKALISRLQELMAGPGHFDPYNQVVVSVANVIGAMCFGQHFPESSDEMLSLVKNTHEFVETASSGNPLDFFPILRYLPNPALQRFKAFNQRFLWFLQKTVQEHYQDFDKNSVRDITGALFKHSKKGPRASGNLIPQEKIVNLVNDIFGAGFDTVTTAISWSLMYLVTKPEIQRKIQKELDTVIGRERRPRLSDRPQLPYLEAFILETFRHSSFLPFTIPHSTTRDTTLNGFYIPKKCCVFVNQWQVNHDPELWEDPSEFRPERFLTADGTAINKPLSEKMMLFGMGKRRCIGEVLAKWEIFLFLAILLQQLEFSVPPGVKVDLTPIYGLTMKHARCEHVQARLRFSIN

[9] = cited from earlier work

## Cn1cnc2[nH]c(=O)[nH]c(=O)c21 [7-Methyl Xanthine]
[1]
  % Cross-Reaction AAMU-Ab: 0%
[2]
  % Cross-Reaction 1X-Ab: 0%
[3]
  % Cross-reaction Caffeine-Ab: 0%
[4]
  % Cross-reaction 1,7-DMX-Ab: 0%
[5]
  % Cross-reaction 1,7-DMU-Ab: 0%

## Cc1nc2[nH]c(=O)[nH]c(=O)c2[nH]1 [8-Methyl Xanthine]
[1]
  % Cross-Reaction AAMU-Ab: 0%
[2]
  % Cross-Reaction 1X-Ab: 0%
[3]
  % Cross-reaction Caffeine-Ab: 0%
[4]
  % Cross-reaction 1,7-DMX-Ab: 0%
[5]
  % Cross-reaction 1,7-DMU-Ab: 0%

## COc1ccc2c(c1)[C@]13CCCC[C@@H]1[C@H](C2)N(C)CC3 [Dextromethorphan]
[6]; extensive metabolizers (EMs), p<0.05 vs PMs
  mean performance +/−SE: 95+/−0.5%
[6]; poor metabolizers (PMs), p<0.05 vs EMs
  mean performance +/−SE: 86+/−6%

## Nc1nc2nc[nH]c2c(=O)[nH]1 [Guanine]
[1]
  % Cross-Reaction AAMU-Ab: 0%
[2]
  % Cross-Reaction 1X-Ab: 0%
[3]
  % Cross-reaction Caffeine-Ab: 0%
[4]
  % Cross-reaction 1,7-DMX-Ab: 0%
[5]
  % Cross-reaction 1,7-DMU-Ab: 0%

## O=c1[nH]cnc2nc[nH]c12 [Hypoxanthine]
[1]
  % Cross-Reaction AAMU-Ab: 0%
[2]
  % Cross-Reaction 1X-Ab: 0%
[3]
  % Cross-reaction Caffeine-Ab: 0%
[4]
  % Cross-reaction 1,7-DMX-Ab: 0%
[5]
  % Cross-reaction 1,7-DMU-Ab: 0%

## CC(=O)Nc1cc2c3c(cccc3c1)C(=O)N(CCN(C)C)C2=O [N-acetyl-amonafide]
[7]
  potency relative to the parent drug amonafide: approximately equipotent to the parent drug
[8]
  effect on amonafide oxidation (CYP1A2): inhibition of amonafide oxidation

## C[N+](C)([O-])CCN1C(=O)c2cccc3cc(N)cc(c23)C1=O [N-oxide-amonafide]
[7]
  potency relative to the parent drug amonafide: essentially inactive

## O=c1cc[nH]c(=O)[nH]1 [Uracil]
[1]
  % Cross-Reaction AAMU-Ab: 0%
[2]
  % Cross-Reaction 1X-Ab: 0%
[3]
  % Cross-reaction Caffeine-Ab: 0%
[4]
  % Cross-reaction 1,7-DMX-Ab: 0%
[5]
  % Cross-reaction 1,7-DMU-Ab: 0%

## O=c1[nH]c(=O)c2[nH]c(=O)[nH]c2[nH]1 [Uric acid]
[1]
  % Cross-Reaction AAMU-Ab: 0%
[2]
  % Cross-Reaction 1X-Ab: 0%
[3]
  % Cross-reaction Caffeine-Ab: 0%
[4]
  % Cross-reaction 1,7-DMX-Ab: 0%
[5]
  % Cross-reaction 1,7-DMU-Ab: 0%

## O=c1[nH]c(=O)c2[nH]cnc2[nH]1 [Xanthine]
[1]
  % Cross-Reaction AAMU-Ab: 0^a %
[2]
  % Cross-Reaction 1X-Ab: 0%
[3]
  % Cross-reaction Caffeine-Ab: 0%
[4]
  % Cross-reaction 1,7-DMX-Ab: 0%
[5]
  % Cross-reaction 1,7-DMU-Ab: 0%

## Nc1ccc(S(=O)(=O)c2ccc(N)cc2)cc1 [dapsone]
[9]; fast acetylators
  adverse reactions: 17%
[9]; slow acetylators
  adverse reactions: 46%

Reference: patent US20030190671A1, “Use of metabolic phenotyping in individualized treatment with amonafide” (McGill University, priority 2001, published 2003)
